One data set has as its target PDE10A1 (Homo sapiens (Human), UniProt Q9Y233). The data set can be described thus: Phosphodiesterase 10 (PDE10) Enzyme Activity Assay. The class given is biochemical. As to conditions: read-out: IC50 (μM), n = 1, inhibition of PDE10A1; SPA, [3H]-cGMP substrate, maximal compound concentration 10 μM. On the procedure:
Phosphodiesterase 10 (PDE10) Enzyme Activity Assay
To generate phosphodiesterase 10A1 (PDE10A1) protein, a full-length PDE10A1 clone corresponding to GenBank ID AAD32595.1 is cloned into pFastBac1 (Invitrogen). The PDE10A1 protein with a C-terminal FLAG-tag is expressed by baculoviral infection of insect cells and purified using anti-FLAG M2-agarose (Sigma) and size exclusion chromatography on a Superdex 200 column (GE Healthcare) and stored at −80° C. in small aliquots (20 mM Tris-HCl, Ph 7.5, 150 mM NaCl, 10% Glycerol).
PDE10A1 enzyme activities are measured with a yittrium silicate based scintillation proximity assay (SPA) that detects radioactive nucleotide monophosphates but not cyclic monophosphates. The assay buffer is composed of 50 mM Tris-HCl pH 7.5, 8 mM MgCl2, 3.4 mM EDTA, and 0.1% BSA (Sigma). Assays are conducted in 384 well plates (3706, Corning) in a total volume of 50 μl: comprised of 24 μl PDE10A1 enzyme, 1 μl test compound and 25 μl of cyclic nucleotide. Test compounds are diluted in pure DMSO using ten-point concentration response curves with a 3-fold dilution factor and 1 μl is acoustically dispensed into assay plates using the Echo555 (LabCyte). 24 μl PDE10A1 protein is incubated with 1 μl compound for 30 min before the reaction is started by the addition of [8-^3H]-cGMP substrate (6.5 Ci/mmol, Perkin Elmer). Final concentration of components is […], 80 nM (3H-cGMP), and 2% DMSO in assay buffer. Maximal compound concentration in the reaction mixture is 10 μM. Reactions are incubated for 60 min at RT before quenching and the addition of […] SPA beads (RPNQ0150, Perkin Elmer). Bead bound radioactivity (product) is quantified 12 h later with a Microbeta counter (Perkin Elmer). Data is normalized to % inhibition and IC50 values are calculated using the 4 parameter logistic equation as described (Campbell R. M.; Dymshitz, J.; Eastwood, B. J.; et al. “Data Standardization for Results Management.” In: Sittampalam, G. S.; Grossman, A.; Brimacombe, K.; et al.; eds. Assay Guidance Manual. Bethesda (Md.): Eli Lilly & Company and the National Center for Advancing Translational Sciences; 2004.).

Another data set has as its target human GLP-1R (Homo sapiens (Human), UniProt P43220). The data set can be described thus: Human GLP-1 Receptor HEK293 Cell cAMP Assay. Particulars: for EC50: EC50 (nM) ± SEM (n), intracellular cAMP response, relative EC50; for Emax: percent of maximal response with human GLP-1(7-36)NH2.
Data set [1] has as its system mice expressing the human GLP-1R. The data set can be described thus: In Vivo Intraperitoneal Glucose Tolerance Test in Human GLP-1R Knock-in Mice. As to conditions: Mus musculus; read-out: Blood glucose lowering ED50. On the procedure:
In Vivo Intraperitoneal Glucose Tolerance Test in Human GLP-1R Knock-in Mice
The potency of the exemplified compounds to lower the concentration of blood glucose in vivo is determined using mice expressing the human GLP-1R (NCBI accession number NP_002053) from the mouse Glp-1r genetic locus (Jun, L. S., et al., PLoS One. 2014 9:e93746). Overnight fasted mice are orally administered the test compound solubilized in 10% Kolliphor® (HS15) in Polyetheylene Glycol 400 (PEG400). One hour post-dose, the animals are administered glucose by intraperitoneal injection (2 g/kg), and blood glucose levels are measured intermittingly over the next two hours using glucometers. A dose range of the test compound is delivered, and area under the curve calculations for each dose group are determined and fit to a four-parameter logistic model for calculating in vivo potency as an ED50 with a 95% confidence interval.

A short description of data set [2]: Non-Human Primate (NHP) Pharmacokinetics. Format: in vivo. As to conditions: cynomolgus monkey, plasma, IV 0.5 mg/kg, fasted male cynomolgus monkeys; for Vd: steady-state, read-out: Volume of distribution. On the procedure: Non-Human Primate (NHP) Pharmacokinetics:
The test compound is administered to fasted male cynomolgus monkeys intravenously (IV) at 0.5 mg/kg (using a dose volume of 1 mL/kg). Serial blood samples are collected at 0.08, 0.25, 0.5, 1, 2, 4, 8, 12, and 24 hours post dose for IV bolus. After treatment with an EDTA […], plasma is obtained by centrifugation and stored at −70° C. until analysis by LC-MS/MS. Test article concentration is determined in plasma. Noncompartmental analysis is used to calculate plasma clearance and steady-state volume of distribution.

Another data set addresses hERG K+ channel (Homo sapiens (Human), UniProt Q12809). The data set can be described thus: Human hERG K+ Channel Affinity Radioligand Binding Assay. Particulars: pH 7.4, probe [3H]dofetilide, 3 nM, read-out: Percent inhibition (%) at 100 μM compound concentration, n = 1. The protocol: Human hERG K^+ Channel Affinity Radioligand Binding Assay
The affinity of compounds for the human hERG K^+ channel in transfected HEK-293 cells is evaluated in a radioligand binding assay as described herein. Cell membrane homogenates (about […]) are incubated for 60 min at 22° C. with 3 nM [^3H]dofetilide in the absence or presence of the test compound in a buffer containing 50 mM Tris-HCl (pH 7.4), 10 mM KCl and 1 mM MgCl2. The assay is carried out in a 96-well plate format with a volume of 200 μL, containing a maximum of 1% DMSO from initial solubilization of test compound. Following incubation, the samples are filtered rapidly under vacuum through glass fiber filters (GF/B, Packard) presoaked with 0.3% PEI and rinsed several times with ice-cold 50 mM Tris-HCl, 10 mM KCl and 1 mM MgCl2 using a 96-sample cell harvester (Unifilter, Packard). The filters are dried and then counted for radioactivity in a scintillation counter (Topcount, Packard) using a scintillation cocktail (Microscint 0, Packard).

Setting [3] is: HEK293 cell line with 104 fmol/mg expression density of GLP-1R.
Where [4] appears, read: HEK293 cell line with 581 fmol/mg expression density of GLP-1R.
[5] abbreviates: HEK293, read-out: Emax (%) ± SEM (n), HEK293 cell line with 104 fmol/mg expression density of GLP-1R.
[6] abbreviates: HEK293, read-out: Emax (%) ± SEM (n), HEK293 cell line with 581 fmol/mg expression density of GLP-1R.

This note sets out measurements from patent publication US11655242B2, “Glucagon-like peptide1 receptor agonists” (Eli Lilly and Company, priority 2019, dated 2023).

Where two headings read alike, the source gives them in different places.

PDE10A1, sequence (Q9Y233 other isoform, or with tags, fused parts or gaps): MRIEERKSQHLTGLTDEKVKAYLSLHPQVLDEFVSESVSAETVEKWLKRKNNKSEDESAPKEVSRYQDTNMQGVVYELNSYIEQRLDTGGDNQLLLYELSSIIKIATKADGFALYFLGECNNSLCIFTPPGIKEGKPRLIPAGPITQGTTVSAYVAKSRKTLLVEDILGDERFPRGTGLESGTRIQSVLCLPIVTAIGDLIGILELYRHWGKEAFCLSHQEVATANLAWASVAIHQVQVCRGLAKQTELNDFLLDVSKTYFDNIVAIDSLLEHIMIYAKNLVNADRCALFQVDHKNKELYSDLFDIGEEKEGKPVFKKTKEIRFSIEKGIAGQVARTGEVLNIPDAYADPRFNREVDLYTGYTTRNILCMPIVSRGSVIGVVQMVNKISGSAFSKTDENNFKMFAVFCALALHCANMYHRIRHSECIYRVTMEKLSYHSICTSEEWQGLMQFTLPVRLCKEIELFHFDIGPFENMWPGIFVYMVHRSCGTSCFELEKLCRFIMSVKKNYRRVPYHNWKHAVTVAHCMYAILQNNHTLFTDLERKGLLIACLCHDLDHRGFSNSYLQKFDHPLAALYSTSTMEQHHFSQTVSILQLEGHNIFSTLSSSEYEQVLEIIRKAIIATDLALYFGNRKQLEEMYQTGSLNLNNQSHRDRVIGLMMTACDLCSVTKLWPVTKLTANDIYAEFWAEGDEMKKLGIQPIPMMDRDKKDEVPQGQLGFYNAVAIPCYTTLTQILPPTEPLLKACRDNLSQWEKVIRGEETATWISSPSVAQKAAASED
hERG K+ channel, sequence (Q12809 whole entry): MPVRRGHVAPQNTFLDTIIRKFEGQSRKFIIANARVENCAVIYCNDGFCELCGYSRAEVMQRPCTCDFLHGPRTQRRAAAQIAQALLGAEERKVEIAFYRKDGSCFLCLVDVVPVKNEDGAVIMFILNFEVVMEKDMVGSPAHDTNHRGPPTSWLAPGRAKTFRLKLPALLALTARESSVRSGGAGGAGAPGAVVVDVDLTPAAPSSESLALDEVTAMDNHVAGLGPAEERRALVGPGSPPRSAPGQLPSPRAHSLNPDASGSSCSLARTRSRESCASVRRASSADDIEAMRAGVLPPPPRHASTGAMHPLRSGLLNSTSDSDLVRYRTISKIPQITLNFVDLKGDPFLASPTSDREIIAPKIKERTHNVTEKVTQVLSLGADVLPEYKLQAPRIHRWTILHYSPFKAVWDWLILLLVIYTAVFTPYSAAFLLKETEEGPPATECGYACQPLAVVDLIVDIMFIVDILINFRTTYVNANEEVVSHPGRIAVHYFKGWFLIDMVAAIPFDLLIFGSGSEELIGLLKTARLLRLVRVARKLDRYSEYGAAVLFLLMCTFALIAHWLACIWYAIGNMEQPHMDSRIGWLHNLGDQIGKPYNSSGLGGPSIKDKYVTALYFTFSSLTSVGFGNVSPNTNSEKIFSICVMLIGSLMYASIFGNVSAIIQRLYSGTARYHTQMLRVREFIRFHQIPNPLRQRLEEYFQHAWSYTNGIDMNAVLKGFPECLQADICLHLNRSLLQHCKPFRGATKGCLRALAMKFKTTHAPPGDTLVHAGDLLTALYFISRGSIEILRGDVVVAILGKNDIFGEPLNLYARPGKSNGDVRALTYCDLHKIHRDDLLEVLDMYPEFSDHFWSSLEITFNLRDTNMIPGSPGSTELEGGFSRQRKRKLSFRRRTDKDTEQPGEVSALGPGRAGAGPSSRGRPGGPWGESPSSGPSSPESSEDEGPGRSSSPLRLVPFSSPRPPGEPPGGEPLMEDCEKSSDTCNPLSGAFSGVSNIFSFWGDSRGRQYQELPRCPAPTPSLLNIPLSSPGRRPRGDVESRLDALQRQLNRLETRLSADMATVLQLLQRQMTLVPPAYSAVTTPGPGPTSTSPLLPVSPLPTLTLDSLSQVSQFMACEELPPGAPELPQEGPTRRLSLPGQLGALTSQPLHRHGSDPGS
human GLP-1R, sequence (P43220 24-463): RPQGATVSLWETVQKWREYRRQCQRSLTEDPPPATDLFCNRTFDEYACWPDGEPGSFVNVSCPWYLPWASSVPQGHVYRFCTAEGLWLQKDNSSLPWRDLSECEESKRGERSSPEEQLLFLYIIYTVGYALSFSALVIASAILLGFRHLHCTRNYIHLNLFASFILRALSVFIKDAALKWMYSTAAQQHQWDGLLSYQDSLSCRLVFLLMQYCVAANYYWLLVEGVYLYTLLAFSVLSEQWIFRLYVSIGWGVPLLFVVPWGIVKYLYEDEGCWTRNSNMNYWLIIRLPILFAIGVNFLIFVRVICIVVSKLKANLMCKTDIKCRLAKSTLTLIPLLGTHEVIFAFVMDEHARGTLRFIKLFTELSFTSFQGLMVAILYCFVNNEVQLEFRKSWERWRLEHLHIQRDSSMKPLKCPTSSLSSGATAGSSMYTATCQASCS

In the case of `N#Cc1ccc(COc2cccc(-c3cc(F)c(Cc4nc5ccc(C(=O)O)cc5n4C[C@@H]4CCO4)c(F)c3)n2)c(F)c1` [Example 4, 2-[[4-[6-[(4-Cyano-2-fluoro-phenyl)methoxy]-2-pyridyl]-2,6-difluoro-phenyl]methyl]-3-[(2S)-oxetan-2-ylmethyl]benzimidazole-5-carboxylic Acid], at PDE10A1, the concentration for half-maximal inhibition (IC50) (as a rule, the concentration at which inhibition is half-maximal) stood at 5.41 µM. The values for the EC50 at human GLP-1R (setting [3]) and on human GLP-1R (setting [4]) were 9.59 ± 2.36 nM and 3.99 ± 0.378 nM, respectively. In addition, the Emax at human GLP-1R (setting [5]) stood at 78.3 ± 5.1%; on human GLP-1R (setting [6]), 99.2 ± 4%.
In the case of `Cc1cc(Cc2nc3ccc(C(=O)O)cc3n2C[C@@H]2CCO2)c(F)cc1-c1cccc(OCc2ccc(C#N)cc2F)n1` [Example 2, 2-[[4-[6-[(4-Cyano-2-fluoro-phenyl)methoxy]-2-pyridyl]-2-fluoro-5-methyl-phenyl]methyl]-3-[[(2S)-oxetan-2-yl]methyl]benzimidazole-5-carboxylic Acid], the ED50 (commonly the dose that gives a 50% effect, or the effect in half of the subjects) in data set [1] amounted to 0.07 mg/kg. In addition, in data set [2], the clearance (in general, a measure of how efficiently the substance is removed, as volume per time) turned out to be 11 mL/min/kg. Besides, the Vd in data set [2] turned out to be 1.1 L/kg. The half-inhibitory concentration (IC50) on PDE10A1 was found to be 7.43 µM. Further, the inhibition at 60 min, 100 µM at hERG K+ channel was determined as 54%. For the same compound, the figures for the half-maximal effective concentration (EC50) at human GLP-1R (setting [3]) and at human GLP-1R (setting [4]) were 3.97 ± 0.61 nM and 1.14 ± 0.315 nM, respectively. Moreover, the results for the Emax at human GLP-1R (setting [5]) and on human GLP-1R (setting [6]) were 79.2 ± 3.2% and 104 ± 4.35%, respectively.
In the case of `Cc1cc(Cc2nc3ccc(C(=O)O)cc3n2C[C@@H]2CCO2)ccc1-c1cccc(OCc2ccc(C#N)cc2F)n1` [Example 1, 2-[[4-[6-[(4-Cyano-2-fluoro-phenyl)methoxy]-2-pyridyl]-3-methyl-phenyl]methyl]-3-[[(2S)-oxetan-2-yl]methyl]benzimidazole-5-carboxylic Acid], the median effective dose (ED50) in data set [1] was 0.09 mg/kg. This compound displayed a clearance in data set [2] of 13 mL/min/kg. Moreover, the Vd in data set [2] worked out at 1.2 L/kg. The 50% inhibitory concentration (IC50) on PDE10A1 was above 10 µM. Also, at hERG K+ channel, the inhibition at 60 min, 100 µM was determined as 0%. Besides, the results for the EC50 at human GLP-1R (setting [3]) and on human GLP-1R (setting [4]) were 20 ± 3.25 nM and 9.33 ± 1.36 nM, respectively. Also, the Emax was 71.4 ± 2.26% at human GLP-1R (setting [5]) and 99.5 ± 2.53% on human GLP-1R (setting [6]).
Turning to `N#Cc1ccc(COc2cccc(-c3ccc(Cc4nc5ccc(C(=O)O)cc5n4C[C@@H]4CCO4)c(F)c3)n2)c(F)c1` [Example 3, 2-[[4-[6-[(4-Cyano-2-fluoro-phenyl)methoxy]-2-pyridyl]-2-fluoro-phenyl]methyl]-3-[(2S)-oxetan-2-ylmethyl]benzimidazole-5-carboxylic Acid], the ED50 in data set [1] was found to be 0.06 mg/kg. For the same compound, in data set [2], the clearance came out at 6 mL/min/kg and the Vd stood at 1.1 L/kg. Moreover, on PDE10A1, the IC50 is above 10 µM. Besides, at hERG K+ channel, the inhibition at 60 min, 100 µM amounted to 37%.
As for `Cc1c(-c2cccc(OCc3ccc(C#N)cc3F)n2)ccc(Cc2nc3ccc(C(=O)O)cc3n2C[C@@H]2CCO2)c1F` [Example 5, 2-[[4-[6-[(4-Cyano-2-fluoro-phenyl)methoxy]-2-pyridyl]-2-fluoro-3-methyl-phenyl]methyl]-3-[[(2S)-oxetan-2-yl]methyl]benzimidazole-5-carboxylic Acid], the EC50 (usually the concentration giving half of the maximal effect) is 23.6 ± 5.43 nM on human GLP-1R (setting [3]) and 6.45 ± 0.934 nM on human GLP-1R (setting [4]). Moreover, the Emax worked out at 76.7 ± 3.88% on human GLP-1R (setting [5]) and 105 ± 2.43% at human GLP-1R (setting [6]).
